Results: US20170315126A1, “METHOD FOR SCREENING COMPOUND SPECIFICALLY SUPPRESSING FORMATION OF CAVEOLAE OF CANCER CELLS, SCREENING KIT, VECTOR AND TRANSFORMANT TO BE USED IN KIT, AND METHOD FOR SELECTING PATIENT FOR WHOM MOLECULARLY TARGETED DRUG IS INDICATED” (NATIONAL UNIVERSITY CORPORATION NAGOYA INSTITUTE OF …, priority 2014, published 2017)
Where two headings read alike, the source gives them in different places.

B1: human Cavin-1 (other, UniProt Q6NZI2 1-390, looked up)
chain: MEDPTLYIVERPLPGYPDAEAPEPSSAGAQAAEEPSGAGSEELIKSDQVNGVLVLSLLDKIIGAVDQIQLTQAQLEERQAEMEGAVQSIQGELSKLGKAHATTSNTVSKLLEKVRKVSVNVKTVRGSLERQAGQIKKLEVNEAELLRRRNFKVMIYQDEVKLPAKLSISKSLKESEALPEKEGEELGEGERPEEDAAALELSSDEAVEVEEVIEESRAERIKRSGLRRVDDFKKAFSKEKMEKTKVRTRENLEKTRLKTKENLEKTRHTLEKRMNKLGTRLVPAERREKLKTSRDKLRKSFTPDHVVYARSKTAVYKVPPFTFHVKKIREGQVEVLKATEMVEVGADDDEGGAERGEAGDLRRGSSPDVHALLEITEESDAVLVDKSDSD
notes: whole, on cells; Intracellular protein; endogenous in cell extracts or full length expressed from pCMVpuro-Cavin-1 in COS-7 cells; also called endogenous Cavin-1; pCMVpuro-Cavin-1-WT

Columns and labels:
NCI-H1975 cells = conditions: cited from earlier work
PC-9 cells = conditions: cited from earlier work
PC-9 and NCI-H1975 = experiment: Cell proliferation by colorimetry (cell counting kit-8) after siRNA transfection; assay type: cell-based, human; conditions: 120 hours after transfection
Method: Transfection of the siRNA (20 nM each) was conducted in accordance with the manufacturer's instruction manual using lipofectamine RNAiMAX (manufactured by Invitrogen). Cells were recovered 72 hours after transfection for Western blotting analysis. Cells were also recovered 120 hours after transfection for analysis by colorimetry to measure cell proliferation.
siControl or siROR1, siCavin-1, or siCAV1 was transfected against the PC-9 or NCI-H1975 cell line to investigate the effects of silencing of ROR1, Cavin-1, and CAV1 on cell proliferation. A reaction was conducted using a cell counting kit-8 (Dojindo) 120 hours after transfection, the absorbance was measured by a plate reader, and colorimetry was conducted. Furthermore, this experiment was conducted three separate times, and the average values were graphed.

CAV1 = experiment: Western blotting of CAV1 expression after siRNA transfection in pulmonary adenocarcinoma cell lines; assay type: cell-based, human; conditions: siRNA 20 nM
Method: Western blotting analysis and IP-WB analysis were conducted by the standard methods using an Immobilon-P filter (manufactured by Millipore Corp.) and an enhanced chemiluminescence system (manufactured by GE Healthcare Inc.). pCMVpuro-Cavin-1-WT was coexpressed with various ROR1 expression constructs such as the wild type (WT), TKΔ473-564 (TKΔ1), TK564-655 (TKΔ2), TKΔ655-746 (TKΔ3), TKΔ473-655 (TKΔ1+×2), TKΔ564-746 (TKΔ2+Δ3), and TKΔ473-746 (TKA1+Δ2+A3) to identify the binding site of ROR1 and Cavin-1. pCMVpuro-CAV1-WT was coexpressed with ROR1 expression constructs such as the wild type (WT), TKΔ473-564 (TKΔ1), TKΔ564-655 (TKΔ2), TKΔ655-746 (TKΔ3), ST1Δ748-782 (ΔST1), PΔ784-851 (ΔP), and ST2Δ853 to 876 (ΔST2) to identify the binding site of ROR1 and CAV1. For these, the cells were recovered 24 hours after transfection by Fugene6 (Promega) using COS-7 cells, and IP-WB analysis was conducted.
Transfection of the siRNA (20 nM each) was conducted in accordance with the manufacturer's instruction manual using lipofectamine RNAiMAX (manufactured by Invitrogen). […] Cells were also recovered 120 hours after transfection for analysis by colorimetry to measure cell proliferation.

[1] = biological target: T1, human ROR1 (receptor tyrosine kinase-like orphan receptor 1) (human, UniProt Q01973 30-937); experiment: IP-WB of octyl glucoside extracts of NCI-H1975 and SK-LU-1 cells
T1 construct: whole, on cells; also called endogenous ROR1; ROR1-WT

human Cavin-1 = biological target: B1; experiment: IP-WB of NCI-H1975 cell extract 24 hours after transfection of siROR1
[2] = biological target: T1, human ROR1 (receptor tyrosine …); experiment: IP-WB of ROR1 constructs coexpressed with CAV1 in COS-7 cells
Method: For these, the cells were recovered 24 hours after transfection by Fugene6 (Promega) using COS-7 cells, and IP-WB analysis was conducted.

[3] = biological target: T1, human ROR1 (receptor tyrosine …); experiment: IP-WB of endogenous proteins in octyl glucoside cell extracts
[4] = NCI-H1975, 72 hours after transfection

T1 sequence (Q01973 30-937): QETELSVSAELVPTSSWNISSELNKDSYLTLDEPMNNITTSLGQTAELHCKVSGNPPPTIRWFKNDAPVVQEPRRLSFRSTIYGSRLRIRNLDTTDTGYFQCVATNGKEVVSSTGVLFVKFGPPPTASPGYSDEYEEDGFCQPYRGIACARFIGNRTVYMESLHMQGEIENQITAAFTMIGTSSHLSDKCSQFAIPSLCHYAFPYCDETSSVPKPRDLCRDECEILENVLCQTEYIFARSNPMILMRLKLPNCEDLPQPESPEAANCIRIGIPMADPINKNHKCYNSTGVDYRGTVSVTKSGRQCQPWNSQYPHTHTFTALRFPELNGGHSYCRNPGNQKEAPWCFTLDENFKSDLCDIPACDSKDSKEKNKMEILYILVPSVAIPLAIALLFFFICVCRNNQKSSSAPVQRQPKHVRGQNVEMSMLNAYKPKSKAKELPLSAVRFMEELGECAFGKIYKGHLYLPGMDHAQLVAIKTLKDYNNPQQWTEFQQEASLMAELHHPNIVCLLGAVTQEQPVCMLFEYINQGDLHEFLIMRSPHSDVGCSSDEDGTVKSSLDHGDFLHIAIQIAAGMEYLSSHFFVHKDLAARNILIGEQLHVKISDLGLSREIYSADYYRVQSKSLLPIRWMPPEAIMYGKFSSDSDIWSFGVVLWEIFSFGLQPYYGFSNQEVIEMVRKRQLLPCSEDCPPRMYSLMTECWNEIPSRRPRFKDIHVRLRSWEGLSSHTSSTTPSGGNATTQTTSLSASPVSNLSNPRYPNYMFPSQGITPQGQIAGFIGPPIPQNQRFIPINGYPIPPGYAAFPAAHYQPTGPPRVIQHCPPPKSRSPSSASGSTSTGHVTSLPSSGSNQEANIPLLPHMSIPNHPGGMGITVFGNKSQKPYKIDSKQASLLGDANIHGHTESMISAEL

CC#CC(=O)Nc1ccc2ncnc(Nc3cccc(Br)c3)c2c1 [CL-387, 785]
sensitivity of cells to EGFR-TKI (NCI-H1975 cells; NCI-H1975 in the presence of HGF): resistance

COc1cc2ncnc(Nc3ccc(F)c(Cl)c3)c2cc1OCCCN1CCOCC1 [gefitinib, Gefitinib]
sensitivity of cells to EGFR-TKI (NCI-H1975 cells; NCI-H1975 (EGFR T790M double mutation), no ligand): resistance | sensitivity of cells to EGFR-TKI (PC-9 cells; PC-9, no ligand): sensitive | sensitivity of cells to EGFR-TKI (PC-9 cells; PC-9 in the presence of HGF): resistance

siCavin-1#1: RNA oligomer for RNAi against human Cavin-1, 5′-CUCCAAGACCGCGGUCUACAA-3′ (SEQ ID No: 18) (listed as RNA, further chemistry not given here)
cell proliferation (colorimetry) (PC-9 and NCI-H1975): inhibit cell proliferation

siCavin-1#2: RNA oligomer for RNAi against human Cavin-1, 5′-CCCGCCGAGCGGCGCGAGAAA-3′ (SEQ ID No: 19) (listed as RNA, further chemistry not given here)
cell proliferation (colorimetry) (PC-9 and NCI-H1975): inhibit cell proliferation

siIGF-IR#1: RNA oligomer for RNAi against human IGF-IR, 5′-GGAAUUGCAUGGUAGCCGAUU-3′ (SEQ ID No: 16) (listed as RNA, further chemistry not given here)
CAV1 expression (Western blot) (CAV1; NCI-H358): downregulation of CAV1 was also found | CAV1 expression (Western blot) (CAV1; [4]): downregulate CAV1

siIGF-IR#2: RNA oligomer for RNAi against human IGF-IR, 5′-CUGACUACAGGGAUCUCAUUU-3′ (SEQ ID No: 17) (listed as RNA, further chemistry not given here)
CAV1 expression (Western blot) (CAV1; NCI-H358): downregulation of CAV1 was also found | CAV1 expression (Western blot) (CAV1; [4]): downregulate CAV1

B1
binding result [1]: binds

B2: human Caveolin 1 (other, UniProt Q03135 2-178, looked up)
chain: SGGKYVDSEGHLYTVPIREQGNIYKPNNKAMADELSEKQVYDAHTKEIDLVNRDPKHLNDDVVKIDFEDVIAEPEGTHSFDGIWKASFTTFTVTKYWFYRLLSALFGIPMALIWGIYFAILSFLHIWAVVPCIKSFLIEIQCISRVYSIYVHTVCDPLFEAVGKIFSNVRINLQKEI
notes: whole, on cells; Endogenous in cell extracts or full length expressed from pCMVpuro-CAV1 in COS-7 cells; also called CAV1; endogenous CAV1
binding result (human Cavin-1): binds | binding result [2]: binds

B3: Cavin-2 (other, human, UniProt O95810 2-425, looked up)
chain: GEDAAQAEKFQHPGSDMRQEKPSSPSPMPSSTPSPSLNLGNTEEAIRDNSQVNAVTVLTLLDKLVNMLDAVQENQHKMEQRQISLEGSVKGIQNDLTKLSKYQASTSNTVSKLLEKSRKVSAHTRAVKERMDRQCAQVKRLENNHAQLLRRNHFKVLIFQEENEIPASVFVKQPVSGAVEGKEELPDENKSLEETLHTVDLSSDDDLPHDEEALEDSAEEKVEESRAEKIKRSSLKKVDSLKKAFSRQNIEKKMNKLGTKIVSVERREKIKKSLTSNHQKISSGKSSPFKVSPLTFGRKKVREGESHAENETKSEDLPSSEQMPNDQEEESFAEGHSEASLASALVEGEIAEEAAEKATSRGSNSGMDSNIDLTIVEDEEEESVALEQAQKVRYEGSYALTSEEAERSDGDPVQPAVLQVHQTS
notes: whole, on cells; Detected with anti-Cavin-2 (Abcam) in IP-WB of cell extracts
binding result [3]: no binding
